How the values were obtained:
Test in all cases: Test B pre-/postemergence plant response
Assay type in all cases: in vivo
[1] = system: downy bromegrass (Bromus tectorum)
Source text: (§1) Seeds of plant species selected from blackgrass (Alopecurus myosuroides), downy bromegrass (Bromus tectorum), green foxtail (Setaria viridis), Italian ryegrass (Lolium multiflorum), wheat (Triticum aestivum), wild oat (Avena fatua), deadnettle (henbit deadnettle, Lamium amplexicaule), galium (catchweed bedstraw, Galium aparine), bermudagrass (Cynodon dactylon), Surinam grass (Brachiaria decumbens), cocklebur (Xanthium strumarium), corn (Zea mays), large crabgrass (Digitaria sanguinalis), woolly cupgrass (Eriochloa villosa), giant foxtail (Setaria faberii), goosegrass (Eleusine indica), johnsongrass (Sorghum halepense), kochia (Kochia scoparia), lambsquarters (Chenopodium album), morningglory (Ipomoea coccinea), nightshade (eastern black nightshade, Solanum ptycanthum), yellow nutsedge (Cyperus esculentus), pigweed (Amaranthus retroflexus), ragweed (common ragweed, Ambrosia elatior), Russian thistle (Salsola kali), soybean (Glycine max), sunflower (common oilseed sunflower, Helianthus annuus) and velvetleaf (Abutilon theophrasti) were planted into a blend of loam soil and sand and treated preemergence with test compounds formulated in a non-phytotoxic solvent mixture which included a surfactant.
(§2) At the same time, plants selected from these crop and weed species and also winter barley (Hordeum vulgare), canarygrass (Phalaris minor), chickweed (Stellaria media) and windgrass (Apera spica-venti) were planted in pots containing Redi-Earth® planting medium (Scotts Company, 14111 Scottslawn Road, Marysville, Ohio 43041) comprising spaghnum peat moss, vermiculite, wetting agent and starter nutrients and treated with postemergence applications of some of the test chemicals formulated in the same manner. Plants ranged in height from 2 to 18 cm (1- to 4-leaf stage) for postemergence treatments.
(§3) Treated plants and controls were maintained in a greenhouse for 13 to 15 days, after which time all treated plants were visually evaluated and compared to controls. Plant response ratings, summarized in Table B, are based on a scale of 0 to 100 where 0 is no effect and 100 is complete control. A dash (-) response means no test result.

[2] = system: kochia (Kochia scoparia); conditions: Postemergence
Source text: as §1, §2, §3

[3] = system: morningglory (Ipomoea coccinea)
Source text: as §1, §2, §3

[4] = system: velvetleaf (Abutilon theophrasti)
Source text: as §1, §2, §3

[5] = system: large crabgrass (Digitaria sanguinalis)
Source text: as §1, §2, §3

[6] = system: yellow nutsedge (Cyperus esculentus)
Source text: as §1, §2, §3

[7] = system: soybean (Glycine max)
Source text: as §1, §2, §3

[8] = system: Italian ryegrass (Lolium multiflorum)
Source text: as §1, §2, §3

[9] = system: wheat (Triticum aestivum)
Source text: as §1, §2, §3

[10] = system: woolly cupgrass (Eriochloa villosa)
Source text: as §1, §2, §3

[11] = system: bermudagrass (Cynodon dactylon)
Source text: as §1, §2, §3

[12] = Postemergence, 31 g ai/ha, 0 to 100 scale (0 no effect, 100 complete control)
[13] = Postemergence, 62 g ai/ha, scale 0 to 100 (0 no effect, 100 complete control)
[14] = Postemergence, 125 g ai/ha, scale 0 (no effect) to 100 (complete control), 13 to 15 days
[15] = Postemergence, 250 g ai/ha, scale 0 to 100 (0 no effect, 100 complete control), 13 to 15 days
[16] = Preemergence, 31 g ai/ha, scale 0 to 100 (0 no effect, 100 complete control)
[17] = Preemergence, 62 g ai/ha, scale 0 to 100 (0 no effect, 100 complete control)
[18] = Preemergence, 125 g ai/ha, scale 0 to 100, 0 no effect, 100 complete control
[19] = Preemergence, 250 g ai/ha, 0 to 100 scale

CCc1ccccc1-n1c(-c2ccccc2)ncc(C(=O)C2=C(O)CCCC2=O)c1=O [Compound 255]
Plant response rating, Bromegrass, Downy [1, 12]: 50 | Plant response rating, Bromegrass, Downy [1, 13]: 60 | Plant response rating, Bromegrass, Downy [1, 14]: 80 | Plant response rating, Bromegrass, Downy [1, 15]: 85 | Plant response rating, Bromegrass, Downy [1, 16]: 0 | Plant response rating, Bromegrass, Downy [1, 17]: 0 | Plant response rating, Bromegrass, Downy [1, 18]: 0 | Bromegrass, Downy plant response rating [1, 19]: 40 | Plant response rating, Kochia ([2]; 31 g ai/ha, 0 to 100 scale (0 no effect, 100 complete control)): 10 | Plant response rating, Kochia ([2]; 62 g ai/ha, scale 0 to 100 (0 no effect, 100 complete control)): 15 | Plant response rating, Kochia ([2]; 125 g ai/ha, scale 0 (no effect) to 100 (complete control), 13 to 15 days): 15 | Plant response rating, Kochia ([2]; 250 g ai/ha, scale 0 to 100 (0 no effect, 100 complete control), 13 to 15 days): 65 | Plant response rating, Morningglory [3, 12]: 75 | Plant response rating, Morningglory [3, 13]: 85 | Plant response rating, Morningglory [3, 14]: 85 | Plant response rating, Morningglory [3, 15]: 100 | Plant response rating, Morningglory [3, 16]: 40 | Plant response rating, Morningglory [3, 17]: 55 | Plant response rating, Morningglory [3, 18]: 65 | Morningglory plant response rating [3, 19]: 90 | Plant response rating, Velvetleaf [4, 12]: 95 | Plant response rating, Velvetleaf [4, 13]: 98 | Plant response rating, Velvetleaf [4, 14]: 98 | Plant response rating, Velvetleaf [4, 15]: 100 | Plant response rating, Velvetleaf [4, 16]: 80 | Plant response rating, Velvetleaf [4, 17]: 95 | Plant response rating, Velvetleaf [4, 18]: 98 | Velvetleaf plant response rating [4, 19]: 100 | Plant response rating, Crabgrass, Large [5, 12]: 85 | Plant response rating, Crabgrass, Large [5, 13]: 85 | Plant response rating, Crabgrass, Large [5, 14]: 90 | Plant response rating, Crabgrass, Large [5, 15]: 95 | Plant response rating, Crabgrass, Large [5, 16]: 80 | Plant response rating, Crabgrass, Large [5, 17]: 95 | Plant response rating, Crabgrass, Large [5, 18]: 100 | Crabgrass, Large plant response rating [5, 19]: 100 | Plant response rating, Nutsedge, Yellow [6, 12]: 10 | Plant response rating, Nutsedge, Yellow [6, 13]: 15 | Plant response rating, Nutsedge, Yellow [6, 14]: 15 | Plant response rating, Nutsedge, Yellow [6, 15]: 60 | Plant response rating, Nutsedge, Yellow [6, 16]: 10 | Plant response rating, Nutsedge, Yellow [6, 17]: 25 | Plant response rating, Nutsedge, Yellow [6, 18]: 40 | Nutsedge, Yellow plant response rating [6, 19]: 90 | Plant response rating, Soybean [7, 12]: 95 | Plant response rating, Soybean [7, 13]: 95 | Plant response rating, Soybean [7, 14]: 100 | Plant response rating, Soybean [7, 15]: 100 | Plant response rating, Soybean [7, 16]: 0 | Plant response rating, Soybean [7, 17]: 0 | Plant response rating, Soybean [7, 18]: 15 | Soybean plant response rating [7, 19]: 80 | Plant response rating, Ryegrass, Italian [8, 12]: 10 | Plant response rating, Ryegrass, Italian [8, 13]: 30 | Plant response rating, Ryegrass, Italian [8, 14]: 30 | Plant response rating, Ryegrass, Italian [8, 15]: 80 | Plant response rating, Ryegrass, Italian [8, 16]: 0 | Plant response rating, Ryegrass, Italian [8, 17]: 0 | Plant response rating, Ryegrass, Italian [8, 18]: 10 | Ryegrass, Italian plant response rating [8, 19]: 30 | Plant response rating, Wheat [9, 12]: 35 | Plant response rating, Wheat [9, 13]: 40 | Plant response rating, Wheat [9, 14]: 50 | Plant response rating, Wheat [9, 15]: 80 | Plant response rating, Wheat [9, 16]: 0 | Plant response rating, Wheat [9, 17]: 0 | Plant response rating, Wheat [9, 18]: 0 | Wheat plant response rating [9, 19]: 5 | Plant response rating, Cupgrass, Woolly [10, 12]: 85 | Plant response rating, Cupgrass, Woolly [10, 13]: 95 | Plant response rating, Cupgrass, Woolly [10, 14]: 95 | Plant response rating, Cupgrass, Woolly [10, 15]: 98 | Plant response rating, Cupgrass, Woolly [10, 16]: 0 | Plant response rating, Cupgrass, Woolly [10, 17]: 10 | Plant response rating, Cupgrass, Woolly [10, 18]: 75 | Cupgrass, Woolly plant response rating [10, 19]: 90 | Plant response rating, Bermudagrass [11, 12]: 90 | Plant response rating, Bermudagrass [11, 13]: 95 | Plant response rating, Bermudagrass [11, 14]: 95 | Plant response rating, Bermudagrass [11, 15]: 100 | Plant response rating, Bermudagrass [11, 16]: 100 | Plant response rating, Bermudagrass [11, 17]: 100 | Plant response rating, Bermudagrass [11, 18]: 100 | Bermudagrass plant response rating ([11]; Preemergence, 250 g ai/ha, 0 to 100 scale, 0 no effect, 100 complete control): 100

Source: patent publication US8952024B2, “Herbicidal pyrimidone derivatives” (E I du Pont de Nemours and Company, priority 2009, dated 2015)
